Laboratory results reported in ChEMBL document CHEMBL1132638, “New (sulfonyloxy)piperazinyldibenzazepines as potential atypical antipsychotics: chemistry and pharmacological evaluation” (J Med Chem, 1999).

Assays:
[1] = target: T1, 5-hydroxytryptamine receptor 2C (Rattus norvegicus, UniProt P08909)
T1 sequence (P08909 whole entry): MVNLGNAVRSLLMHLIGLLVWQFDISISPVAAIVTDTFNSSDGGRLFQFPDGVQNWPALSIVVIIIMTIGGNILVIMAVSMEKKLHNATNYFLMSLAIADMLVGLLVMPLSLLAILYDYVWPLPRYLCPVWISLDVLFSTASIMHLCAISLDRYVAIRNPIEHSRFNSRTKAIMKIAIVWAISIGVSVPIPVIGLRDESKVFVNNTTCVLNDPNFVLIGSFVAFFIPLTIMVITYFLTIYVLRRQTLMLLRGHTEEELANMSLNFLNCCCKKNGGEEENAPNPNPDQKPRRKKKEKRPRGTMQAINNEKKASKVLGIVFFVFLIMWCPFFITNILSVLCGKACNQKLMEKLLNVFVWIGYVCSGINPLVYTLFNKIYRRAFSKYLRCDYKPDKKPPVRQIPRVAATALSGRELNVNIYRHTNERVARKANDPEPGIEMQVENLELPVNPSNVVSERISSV
Description: Binding affinity towards 5-HT2C receptor from rat using [3H]mesulergine as radioligand

[2] = target: 5-hydroxytryptamine receptor 2A (Rattus norvegicus, UniProt P14842); test: biochemical
Description: Binding affinity towards 5-hydroxytryptamine 2A receptor from rat frontal cortex using [3H]ketanserin as radioligand

[3] = target: T2, Muscarinic acetylcholine receptor M1 (Homo sapiens, UniProt P11229); test: Inhibition of binding of 1.0 nM [3H]pirenzepine to cloned human Muscarinic acetylcholine receptor M1 expressed in membranes from CHO-K1 cells; format: cell-based
T2 sequence (P11229 whole entry): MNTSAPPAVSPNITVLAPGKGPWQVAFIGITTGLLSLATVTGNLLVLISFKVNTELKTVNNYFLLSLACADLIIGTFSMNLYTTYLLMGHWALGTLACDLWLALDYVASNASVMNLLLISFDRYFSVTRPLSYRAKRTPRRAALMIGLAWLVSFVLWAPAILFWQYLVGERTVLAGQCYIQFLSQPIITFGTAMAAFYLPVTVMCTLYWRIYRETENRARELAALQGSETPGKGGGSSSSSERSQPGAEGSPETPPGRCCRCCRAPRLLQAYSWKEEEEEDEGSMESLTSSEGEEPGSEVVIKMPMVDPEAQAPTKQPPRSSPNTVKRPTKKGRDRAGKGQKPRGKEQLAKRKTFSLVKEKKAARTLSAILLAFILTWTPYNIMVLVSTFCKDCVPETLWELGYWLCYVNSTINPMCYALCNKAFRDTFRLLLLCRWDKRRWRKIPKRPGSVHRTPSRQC

Rattus norvegicus [4] = test: Inhibition of catalepsy in rat by subcutaneous administration of compound; format: functional; conditions: sc
in vivo = conditions: sc
Description: Therapeutic ratio by Subcutaneous dose of administration (quotient ED50 catalepsy/ED50 climbing)

D(4) dopamine receptor [5] = target: T3, D(4) dopamine receptor (Homo sapiens, UniProt P21917); test: Binding affinity towards human D4.2 receptor
T3 sequence (P21917 whole entry): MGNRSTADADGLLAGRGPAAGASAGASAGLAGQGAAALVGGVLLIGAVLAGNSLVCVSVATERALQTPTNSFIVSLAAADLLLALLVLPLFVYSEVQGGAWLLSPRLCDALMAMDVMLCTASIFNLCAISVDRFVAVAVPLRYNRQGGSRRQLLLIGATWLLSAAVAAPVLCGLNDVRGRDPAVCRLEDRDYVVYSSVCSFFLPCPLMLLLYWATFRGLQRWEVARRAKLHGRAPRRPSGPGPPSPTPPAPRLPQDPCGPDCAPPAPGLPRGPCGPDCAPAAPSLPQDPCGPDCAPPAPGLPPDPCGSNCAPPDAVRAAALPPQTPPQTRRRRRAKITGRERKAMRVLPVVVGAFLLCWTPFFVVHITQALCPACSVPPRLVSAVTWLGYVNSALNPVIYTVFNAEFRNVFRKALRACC

Mus musculus [6] = test: Inhibition of apomorphine induced climbing affects in mice by administering the compound subcutaneously in mice; format: functional; conditions: sc
D(3) dopamine receptor = D(3) dopamine receptor (Homo sapiens, UniProt P35462)
Description: Binding affinity towards human Dopamine receptor D3

[7] = Delta ED50 value by Subcutaneous administration (ED50 catalepsy-ED50 Climbing); format: functional
D(1A) dopamine receptor = D(1A) dopamine receptor (Rattus norvegicus, UniProt P18901); test: biochemical
Description: Binding affinity towards D1 CNS receptor of rat corpus striatum using [3H]SCH-23390 as radioligand

[8] = Partition coefficient (logP); format: physicochemical; conditions: octanol/water
[9] = target: T4, Adrenergic receptor alpha-1 (Rattus norvegicus, UniProt P15823+P23944+P43140); test: Binding affinity towards alpha-1 adrenergic receptor from rat brain membranes using [3H]prazosin as radioligand
T4 sequence (P15823 whole entry): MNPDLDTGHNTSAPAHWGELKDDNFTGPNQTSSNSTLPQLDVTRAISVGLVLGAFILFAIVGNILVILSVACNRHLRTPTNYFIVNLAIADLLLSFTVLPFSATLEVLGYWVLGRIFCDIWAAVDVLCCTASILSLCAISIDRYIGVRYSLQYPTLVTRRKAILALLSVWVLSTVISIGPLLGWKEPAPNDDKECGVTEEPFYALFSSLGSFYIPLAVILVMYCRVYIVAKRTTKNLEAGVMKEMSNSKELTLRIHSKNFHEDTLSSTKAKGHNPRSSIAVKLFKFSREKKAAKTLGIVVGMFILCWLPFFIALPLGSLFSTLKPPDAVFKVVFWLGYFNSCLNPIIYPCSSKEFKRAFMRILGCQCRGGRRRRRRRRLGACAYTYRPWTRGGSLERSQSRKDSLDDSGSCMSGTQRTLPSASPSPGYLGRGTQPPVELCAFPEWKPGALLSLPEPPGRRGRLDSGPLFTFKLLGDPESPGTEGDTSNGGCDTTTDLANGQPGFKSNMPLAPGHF
T4 sequence (P23944 whole entry): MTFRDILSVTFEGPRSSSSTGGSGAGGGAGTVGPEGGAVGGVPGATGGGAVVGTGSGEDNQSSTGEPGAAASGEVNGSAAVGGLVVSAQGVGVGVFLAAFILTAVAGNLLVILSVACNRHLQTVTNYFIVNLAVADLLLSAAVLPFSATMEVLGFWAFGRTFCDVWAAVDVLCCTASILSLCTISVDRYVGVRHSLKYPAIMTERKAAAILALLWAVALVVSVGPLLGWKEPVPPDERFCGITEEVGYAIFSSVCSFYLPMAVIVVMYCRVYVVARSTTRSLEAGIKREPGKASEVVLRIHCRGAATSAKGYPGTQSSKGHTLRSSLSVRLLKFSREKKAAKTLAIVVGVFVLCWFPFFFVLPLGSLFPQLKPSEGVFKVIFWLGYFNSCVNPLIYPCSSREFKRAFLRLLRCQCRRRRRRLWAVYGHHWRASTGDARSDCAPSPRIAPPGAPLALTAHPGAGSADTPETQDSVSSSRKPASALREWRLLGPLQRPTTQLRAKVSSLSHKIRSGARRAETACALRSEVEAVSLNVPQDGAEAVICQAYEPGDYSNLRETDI
T4 sequence (P43140 whole entry): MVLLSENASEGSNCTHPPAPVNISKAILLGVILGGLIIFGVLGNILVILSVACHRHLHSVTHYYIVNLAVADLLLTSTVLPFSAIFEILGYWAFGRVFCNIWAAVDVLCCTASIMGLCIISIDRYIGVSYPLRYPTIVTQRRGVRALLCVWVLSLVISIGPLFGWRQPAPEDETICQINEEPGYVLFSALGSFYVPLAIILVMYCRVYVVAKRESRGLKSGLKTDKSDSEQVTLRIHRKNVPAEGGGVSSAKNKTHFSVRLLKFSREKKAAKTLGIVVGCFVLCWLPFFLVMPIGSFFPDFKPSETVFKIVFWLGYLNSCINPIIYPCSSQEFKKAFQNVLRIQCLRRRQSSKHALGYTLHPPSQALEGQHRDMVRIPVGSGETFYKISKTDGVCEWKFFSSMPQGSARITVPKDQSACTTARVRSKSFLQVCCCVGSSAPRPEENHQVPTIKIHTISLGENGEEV

Mus musculus [10] = test: Compound is measured for inhibition of apomorphine induced climbing affects in mice by administering the compound subcutaneously (sc) in mice; format: functional
[11] = Antipsychotic activity was determined from subcutaneous administration of compound in mice (ED50 catalepsy-ED50 Climbing); format: functional
D(2) dopamine receptor = D(2) dopamine receptor (Homo sapiens, UniProt P14416); test: Compound was tested in vitro for its binding affinity towards human Dopamine receptor D2
D(4) dopamine receptor [12] = target: T3, D(4) dopamine receptor; test: Compound was tested in vitro for its binding affinity towards human Dopamine receptor D4.2
Rattus norvegicus [13] = test: Compound is measured for inhibition of catalepsy in rat by peroral administration of compound; format: functional; conditions: po
Mus musculus [14] = test: Inhibition of apomorphine induced climbing affects in mice by administering the compound perorally in mice; format: functional; conditions: Mus musculus, po; read-out: ED50
Rattus norvegicus [15] = organism: Rattus norvegicus; test: Ex vivo accumulation of L-DOPA was measured in striatum of rats

Chain of D(1A) dopamine receptor (P18901 whole entry): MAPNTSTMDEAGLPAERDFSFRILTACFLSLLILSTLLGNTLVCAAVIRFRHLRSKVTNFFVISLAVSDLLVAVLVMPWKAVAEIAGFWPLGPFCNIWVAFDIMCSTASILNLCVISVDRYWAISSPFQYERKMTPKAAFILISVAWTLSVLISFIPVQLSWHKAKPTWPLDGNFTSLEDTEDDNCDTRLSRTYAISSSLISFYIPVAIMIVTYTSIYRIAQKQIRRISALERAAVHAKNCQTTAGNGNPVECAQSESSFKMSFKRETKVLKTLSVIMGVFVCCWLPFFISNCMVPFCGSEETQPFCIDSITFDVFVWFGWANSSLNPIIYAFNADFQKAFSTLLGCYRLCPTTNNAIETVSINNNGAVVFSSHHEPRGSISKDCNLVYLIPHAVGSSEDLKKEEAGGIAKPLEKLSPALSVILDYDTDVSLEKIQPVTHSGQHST
Chain of 5-hydroxytryptamine receptor 2A (P14842 whole entry): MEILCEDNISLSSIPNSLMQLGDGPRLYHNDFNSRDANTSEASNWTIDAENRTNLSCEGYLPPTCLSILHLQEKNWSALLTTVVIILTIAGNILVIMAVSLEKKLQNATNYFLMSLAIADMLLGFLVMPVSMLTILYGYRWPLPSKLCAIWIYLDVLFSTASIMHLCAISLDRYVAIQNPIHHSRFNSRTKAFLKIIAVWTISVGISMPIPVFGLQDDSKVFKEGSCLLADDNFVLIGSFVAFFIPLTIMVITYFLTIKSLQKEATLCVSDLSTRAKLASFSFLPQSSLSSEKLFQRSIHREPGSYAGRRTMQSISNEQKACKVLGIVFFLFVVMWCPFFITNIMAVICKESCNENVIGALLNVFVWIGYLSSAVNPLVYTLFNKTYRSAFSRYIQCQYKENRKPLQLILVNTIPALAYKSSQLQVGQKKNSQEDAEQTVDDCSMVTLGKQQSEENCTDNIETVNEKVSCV
Chain of D(3) dopamine receptor (P35462 whole entry): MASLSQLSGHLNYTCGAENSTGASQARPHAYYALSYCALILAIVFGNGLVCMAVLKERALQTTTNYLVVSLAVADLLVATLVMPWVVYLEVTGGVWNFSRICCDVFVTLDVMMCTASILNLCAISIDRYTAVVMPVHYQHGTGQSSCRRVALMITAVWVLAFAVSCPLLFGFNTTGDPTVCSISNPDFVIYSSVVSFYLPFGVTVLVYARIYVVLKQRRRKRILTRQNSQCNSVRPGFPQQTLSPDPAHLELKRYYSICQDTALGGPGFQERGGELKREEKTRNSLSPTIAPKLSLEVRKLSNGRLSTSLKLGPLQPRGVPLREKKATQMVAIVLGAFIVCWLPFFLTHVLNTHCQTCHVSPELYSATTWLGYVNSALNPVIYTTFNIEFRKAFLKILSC
Chain of D(2) dopamine receptor (P14416 whole entry): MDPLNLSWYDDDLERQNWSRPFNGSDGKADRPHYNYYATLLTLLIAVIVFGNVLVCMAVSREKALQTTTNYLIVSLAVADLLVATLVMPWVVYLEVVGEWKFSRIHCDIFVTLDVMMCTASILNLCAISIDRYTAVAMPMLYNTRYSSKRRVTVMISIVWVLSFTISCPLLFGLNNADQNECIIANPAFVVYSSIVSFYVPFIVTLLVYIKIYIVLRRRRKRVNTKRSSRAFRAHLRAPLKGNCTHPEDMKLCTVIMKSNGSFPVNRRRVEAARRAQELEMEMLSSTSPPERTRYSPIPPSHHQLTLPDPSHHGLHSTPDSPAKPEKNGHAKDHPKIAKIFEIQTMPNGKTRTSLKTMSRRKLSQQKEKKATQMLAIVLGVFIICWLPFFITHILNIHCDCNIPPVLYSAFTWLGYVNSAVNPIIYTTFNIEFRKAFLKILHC

SMILES	IC50 [1] [nM]	IC50 [2] [nM]	IC50 (D(1A) dopamine receptor) [nM]	logP [8]	IC50 [9] [nM]	ED50 (Rattus norvegicus [4]) [mg/kg]	other results
CN1CCN(C2=Nc3cc(OS(C)(=O)=O)ccc3Nc3ccccc32)CC1	7400	4900	22000	1.8	8700	–	IC50 [3]: 38 nM
CN1CCN(C2=Nc3ccccc3Sc3ccc(Cl)cc32)CC1 [CLOTHIAPINE]	–	–	–	–	–	0.72	ED50 (Mus musculus [10]): 0.27 mg/kg; Delta ED50 [11]: 0.45 mg/kg; selectivity ratio (in vivo): 2.7
CN1CCN(C2=Nc3cc(Cl)ccc3Nc3ccccc32)CC1 [CLOZAPINE]	–	–	–	3.48	–	> 32.6	ED50 (Rattus norvegicus [13]): > 100 mg/kg; ED50 (Mus musculus [6]): 5.6 mg/kg; ED50 (Mus musculus [14]): 17 mg/kg; ED50 (Rattus norvegicus [15]): 17 mg/kg
COc1ccc2c(c1)N=C(N1CCN(C)CC1)c1ccccc1N2	–	–	–	2.71	–	–	–

Now from value to compound, other results behind:

IC50 [1] [nM]	IC50 [2] [nM]	IC50 (D(1A) dopamine receptor) [nM]	logP [8]	IC50 [9] [nM]	SMILES	ED50 (Rattus norvegicus [4]) [mg/kg]	other results
280	110	100	4.04	3.6	CN1CCN(C2=Nc3ccccc3Sc3ccc(OS(=O)(=O)C(F)(F)F)cc32)CC1	30	IC50 [3]: 460 nM; selectivity ratio (in vivo): 11.5; IC50 (D(4) dopamine receptor [5]): 570 nM; ED50 (Mus musculus [6]): 2.6 mg/kg; IC50 (D(3) dopamine receptor): 8 nM; Delta ED50 [7]: 27.4 mg/kg
1200	–	2100	1.8	160	CN1CCN(C2=Nc3ccccc3Nc3ccc(OS(C)(=O)=O)cc32)CC1	–	–
–	230	–	1.98	–	CN1CCN(C2=Nc3ccccc3Oc3ccc(OS(C)(=O)=O)cc32)CC1	–	IC50 (D(2) dopamine receptor): > 1000 nM; IC50 (D(3) dopamine receptor): 350 nM; IC50 (D(4) dopamine receptor [12]): > 1000 nM
–	–	–	2.21	–	CN1CCN(C2=Nc3cc(O)ccc3Nc3ccccc32)CC1	–	–
